Data: patent publication US11771636B2, “Composition for promoting hair growth comprising adiponectin-derived peptide” (JUNGJINHO EFFECT INC., priority 2018, dated 2023)

Key:
[1] = test system: human hair follicles-derived outer root sheath cells; assay: MTT cell division and activation in outer root sheath cells; type: cell-based; conditions: peptide 0.5 μg/ml and 5 μg/ml, 48 hours, minoxidil 1 mM positive control
Method: (§1) Primary cultured human hair follicles-derived dermal papilla cells and outer root sheath cells were subcultured to passages 2 to 3, and then treated with minoxidil, which has been conventionally used as an agent for preventing hair loss and treating hair growth as a positive control at a concentration of 1 mM, and separately treated with the adiponectin-derived peptide of the present invention prepared in Example 1 at concentrations of 0.5 μg/ml and 5 μg/ml. After 48 hours, the activated living cells were stained with an MTT solution and compared with a negative control group, and the degree of division and activation of the cells was confirmed.

[2] = test system: human hair follicles-derived dermal papilla cells; assay: MTT cell division and activation in dermal papilla cells; type: cell-based; conditions: peptide 0.5 μg/ml and 5 μg/ml, 48 hours, minoxidil 1 mM positive control
Method: as §1

Row | Substance | cell division of outer root sheath cells [1] | cell division of dermal papilla cells [2]
1 | GLYYF (P5 peptide from adiponectin (GLYYF)) [adiponectin-derived 5-mer peptide] | more excellent effect than minoxidil | more excellent effect than minoxidil
2 | NIPGL (P10 peptide from adiponectin (NIPGL)) [adiponectin-derived 5-mer peptide] | more excellent effect than minoxidil | more excellent effect than minoxidil
